The nature of data set [1]: Oral bioavailability in NMRI mouse. In kind it is ADME, organism-based. Conditions: in vivo.
For data set [2], the target named is T1, von Hippel-Lindau disease tumor suppressor/SWI/SNF-related matrix-associated actin-dependent regulator of chromatin subfamily A member 2 (Homo sapiens, UniProt P51531+P40337). As to the kind of experiment: Protac activity at VHL/SMARCA2 in human RKO cells assessed as degradation of SMARCA2. The class given is cell-based.
Target sequence in this assay (P51531 whole entry): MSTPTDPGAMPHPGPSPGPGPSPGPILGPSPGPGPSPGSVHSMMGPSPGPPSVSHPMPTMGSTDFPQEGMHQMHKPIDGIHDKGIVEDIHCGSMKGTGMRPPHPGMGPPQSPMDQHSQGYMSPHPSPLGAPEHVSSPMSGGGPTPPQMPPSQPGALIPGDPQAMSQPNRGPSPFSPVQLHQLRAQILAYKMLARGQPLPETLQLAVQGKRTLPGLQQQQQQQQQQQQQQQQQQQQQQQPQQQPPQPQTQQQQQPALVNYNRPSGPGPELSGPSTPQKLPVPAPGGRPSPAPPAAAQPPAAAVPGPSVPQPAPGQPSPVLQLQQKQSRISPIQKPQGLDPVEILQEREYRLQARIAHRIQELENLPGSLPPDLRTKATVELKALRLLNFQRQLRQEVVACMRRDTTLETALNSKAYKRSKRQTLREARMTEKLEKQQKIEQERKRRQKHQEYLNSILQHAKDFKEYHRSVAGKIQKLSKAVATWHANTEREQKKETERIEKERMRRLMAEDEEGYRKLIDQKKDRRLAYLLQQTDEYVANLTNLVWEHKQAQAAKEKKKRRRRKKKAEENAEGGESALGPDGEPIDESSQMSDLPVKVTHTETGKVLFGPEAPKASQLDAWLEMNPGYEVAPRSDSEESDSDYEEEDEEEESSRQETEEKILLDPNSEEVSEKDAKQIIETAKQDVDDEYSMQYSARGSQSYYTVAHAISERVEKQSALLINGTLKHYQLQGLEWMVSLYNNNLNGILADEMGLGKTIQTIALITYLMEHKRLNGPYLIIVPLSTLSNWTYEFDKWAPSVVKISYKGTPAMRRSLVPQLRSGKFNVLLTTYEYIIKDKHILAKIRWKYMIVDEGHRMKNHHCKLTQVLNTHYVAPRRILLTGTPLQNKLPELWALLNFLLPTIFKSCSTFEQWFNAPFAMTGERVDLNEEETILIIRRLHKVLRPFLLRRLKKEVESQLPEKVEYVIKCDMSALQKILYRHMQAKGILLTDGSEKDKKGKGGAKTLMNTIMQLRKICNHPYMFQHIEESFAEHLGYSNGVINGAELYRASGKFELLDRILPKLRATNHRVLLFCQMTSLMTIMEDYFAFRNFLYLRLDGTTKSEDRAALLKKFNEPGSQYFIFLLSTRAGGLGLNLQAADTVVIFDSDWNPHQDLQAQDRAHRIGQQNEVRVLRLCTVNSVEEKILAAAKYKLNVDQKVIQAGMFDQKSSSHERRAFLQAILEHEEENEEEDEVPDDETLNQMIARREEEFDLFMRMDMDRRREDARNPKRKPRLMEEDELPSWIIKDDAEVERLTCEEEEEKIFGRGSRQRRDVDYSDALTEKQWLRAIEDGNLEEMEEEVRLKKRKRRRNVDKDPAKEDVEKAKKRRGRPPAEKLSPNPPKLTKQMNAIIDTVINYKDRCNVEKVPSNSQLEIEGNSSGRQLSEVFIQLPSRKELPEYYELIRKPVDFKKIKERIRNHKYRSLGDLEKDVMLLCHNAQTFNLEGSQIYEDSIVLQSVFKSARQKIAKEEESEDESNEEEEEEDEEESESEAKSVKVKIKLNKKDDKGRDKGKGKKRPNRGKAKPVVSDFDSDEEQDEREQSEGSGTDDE
Target sequence in this assay (P40337 whole entry): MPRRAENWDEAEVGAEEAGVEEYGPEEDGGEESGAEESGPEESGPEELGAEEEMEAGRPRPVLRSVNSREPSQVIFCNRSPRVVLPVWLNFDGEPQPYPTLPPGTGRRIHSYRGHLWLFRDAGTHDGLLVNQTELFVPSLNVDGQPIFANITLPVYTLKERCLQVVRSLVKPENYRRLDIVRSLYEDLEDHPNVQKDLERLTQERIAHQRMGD
Data set [3] concerns the target von Hippel-Lindau disease tumor suppressor/SWI/SNF-related matrix-associated actin-dependent regulator of chromatin subfamily A member 4 (Homo sapiens, UniProt P51532+P40337). The experiment in a line: Protac activity at VHL/SMARCA4 in human RKO cells assessed as degradation of SMARCA4. In kind it is cell-based.
The species named for another data set is Homo sapiens. The experiment in a line: Selectivity index, ratio of DC50 for VHL/SMARCA2 in human RKO cells to DC50 for VHL/SMARCA4 in human RKO cells. In kind it is cell-based.
For data set [4], the target named is T1, von Hippel-Lindau disease tumor suppressor/SWI/SNF-related matrix-associated actin-dependent regulator of chromatin subfamily A member 2. The experiment in a line: Protac activity at VHL/SMARCA2 (unknown origin) assessed as degradation of SMARCA2. In kind it is protein assay.
Target sequence in this assay (P51531 whole entry): as the sequence (P51531 whole entry) above
Target sequence in this assay (P40337 whole entry): as the sequence (P40337 whole entry) above
The target is the same in data set [5]. The experiment in a line: Protac activity at VHL/SMARCA2 (unknown origin) assessed as degradation of SMARCA2 relative to control. In kind it is protein assay.
Target sequence in this assay (P40337 whole entry, looked up): as the sequence (P40337 whole entry) above
Target sequence in this assay (P51531 whole entry, looked up): as the sequence (P51531 whole entry) above
The target of data set [6] is SWI/SNF-related matrix-associated actin-dependent regulator of chromatin subfamily A member 2 (Homo sapiens, UniProt P51531). The experiment in a line: Inhibition of SMARCA2 (unknown origin) assessed as dissociation constant.
Sequence of SWI/SNF-related matrix-associated actin-dependent regulator of chromatin subfamily A member 2 (P51531 whole entry): as above

Where only a bound is given, the exact number is not on record here.

Sequence of von Hippel-Lindau disease tumor suppressor/SWI/SNF-related matrix-associated actin-dependent regulator of chromatin subfamily A member 4 (P51532 whole entry): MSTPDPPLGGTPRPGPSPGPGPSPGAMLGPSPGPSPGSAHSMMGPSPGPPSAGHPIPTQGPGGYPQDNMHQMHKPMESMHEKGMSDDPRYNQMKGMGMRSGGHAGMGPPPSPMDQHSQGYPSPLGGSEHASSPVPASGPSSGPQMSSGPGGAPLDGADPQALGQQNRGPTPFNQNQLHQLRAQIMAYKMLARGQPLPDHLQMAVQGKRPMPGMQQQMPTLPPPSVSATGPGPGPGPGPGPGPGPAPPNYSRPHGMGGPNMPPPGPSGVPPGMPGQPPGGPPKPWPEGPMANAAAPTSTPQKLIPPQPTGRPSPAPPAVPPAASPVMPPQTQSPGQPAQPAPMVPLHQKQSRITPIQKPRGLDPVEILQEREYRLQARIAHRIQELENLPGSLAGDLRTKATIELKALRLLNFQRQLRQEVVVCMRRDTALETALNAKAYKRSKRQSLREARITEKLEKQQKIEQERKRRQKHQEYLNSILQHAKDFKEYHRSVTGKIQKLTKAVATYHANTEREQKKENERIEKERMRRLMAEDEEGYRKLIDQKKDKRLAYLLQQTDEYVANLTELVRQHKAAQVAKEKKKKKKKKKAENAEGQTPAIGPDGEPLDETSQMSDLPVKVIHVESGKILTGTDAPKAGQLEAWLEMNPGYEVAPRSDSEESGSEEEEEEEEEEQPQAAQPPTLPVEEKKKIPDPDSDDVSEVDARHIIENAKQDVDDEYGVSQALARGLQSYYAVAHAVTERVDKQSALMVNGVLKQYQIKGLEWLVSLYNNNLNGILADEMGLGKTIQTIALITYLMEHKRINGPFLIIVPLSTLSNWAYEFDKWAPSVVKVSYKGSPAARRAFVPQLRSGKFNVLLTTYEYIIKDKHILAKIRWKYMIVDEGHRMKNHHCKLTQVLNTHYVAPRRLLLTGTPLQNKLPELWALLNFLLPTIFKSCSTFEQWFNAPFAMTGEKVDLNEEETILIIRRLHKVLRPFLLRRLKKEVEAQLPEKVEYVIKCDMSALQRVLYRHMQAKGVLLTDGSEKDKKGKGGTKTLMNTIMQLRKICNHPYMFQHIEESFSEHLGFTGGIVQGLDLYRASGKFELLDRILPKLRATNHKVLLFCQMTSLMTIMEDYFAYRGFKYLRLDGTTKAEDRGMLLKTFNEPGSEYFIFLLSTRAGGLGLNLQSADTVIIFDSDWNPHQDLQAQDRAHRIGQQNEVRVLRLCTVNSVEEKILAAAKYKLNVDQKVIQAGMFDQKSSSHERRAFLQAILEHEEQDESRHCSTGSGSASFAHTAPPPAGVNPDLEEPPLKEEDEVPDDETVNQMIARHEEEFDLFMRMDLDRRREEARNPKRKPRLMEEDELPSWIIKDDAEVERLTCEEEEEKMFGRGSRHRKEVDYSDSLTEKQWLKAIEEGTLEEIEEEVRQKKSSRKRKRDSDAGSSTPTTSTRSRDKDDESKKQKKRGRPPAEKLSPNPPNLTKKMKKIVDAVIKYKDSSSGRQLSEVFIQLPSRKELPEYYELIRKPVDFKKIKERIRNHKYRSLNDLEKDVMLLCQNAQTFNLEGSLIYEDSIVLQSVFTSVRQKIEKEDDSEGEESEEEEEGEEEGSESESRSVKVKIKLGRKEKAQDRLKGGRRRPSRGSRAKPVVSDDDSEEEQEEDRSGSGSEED
Sequence of von Hippel-Lindau disease tumor suppressor/SWI/SNF-related matrix-associated actin-dependent regulator of chromatin subfamily A member 4 (P40337 whole entry): as the sequence (P40337 whole entry) above

With `Cc1ncsc1-c1ccc(CNC(=O)[C@@H]2C[C@@H](O)CN2C(=O)[C@@H](NC(=O)C2(F)CC2)C(C)(C)C)c(CC[C@H](C)CCN2CCC(c3ccc4c(c3)n(C3CCCC3)c3nc(=O)c5c(Br)cccc5n43)CC2)c1`, in data set [1], the bioavailability (as a rule, dose-corrected exposure relative to a reference, in per cent) was found to be 22%. Moreover, the figures for the DC50 in data set [2] and in data set [3] were 1 nM and 32 nM, respectively. Also, in the data set listed under Homo sapiens, the Selectivity Index was more than 30.

Regarding `Cc1ncsc1-c1ccc(CNC(=O)[C@@H]2C[C@@H](O)CN2C(=O)[C@@H](NC(=O)C2(F)CC2)C(C)(C)C)c(OCCCN2CCC(c3ccc4c(c3)n(C3CCCC3)c3nc(=O)c5c(Br)cccc5n43)CC2)c1`, the DC50 (as a rule, the concentration at which degradation of the target reaches its halfway point) in data set [4] amounted to 78 nM. Besides, the Emax (usually the greatest response seen or fitted, relative to the assay's reference) in data set [5] is 46%.

As for `O=c1nc2n(C3CCCC3)c3cc(C4CCNCC4)ccc3n2c2cccc(Br)c12`, the Kd (as a rule, the equilibrium constant for the complex coming apart) in data set [6] worked out at 46 nM.

These data come from ChEMBL document CHEMBL5360624, “Exploitation of Proximity-Mediated Effects in Drug Discovery: An Update of Recent Research Highlights in Perturbing Pathogenic Proteins and Correlated Issues” (J Med Chem, 2023).
